This note sets out measurements from publication PMC4841536, “Characterization of the Anti-HCV Activities of the New Cyclophilin Inhibitor STG-175” (PLoS ONE, 2016).

Common to all, as to type: cell-based
Assay [1] has as its system HCV GT3a subgenomic replicon S52/SG-Feo (AI). The experiment in a line: Luciferase reporter replicon antiviral assay, GT3a. Conditions: Hepatitis C virus. The procedure:
(§1) The anti-HCV activity of STG-175 was conducted using a panel of luciferase reporter replicon cell lines including GT1a, GT1b, GT2a, GT3a and GT4a as we described previously. The GT1a subgenomic renilla luciferase reporter replicon H77 RLucP (7) was supplied by Dr. Delaney. The GT1b subgenomic firefly luciferase reporter replicon pFK-I389/NS3-3’ [29] was supplied by Dr. Bartenschlager. The GT1B subgenomic NS3, NS5A and NS5B mutants were created via homologous recombination using the In-Fusion HD Cloning kit (Clontech) as we described previously. The GT2a genomic luciferase reporter replicon Luc-Neo-JFH-1 was generated as previously. The plasmid pFK-Luc-JFH1 was supplied from Drs. […] The CellTiter-Fluor™ Cell Viability Assay is a non-lytic fluorescence assay, which measures the number of live cells. […] Luciferase activity was determined using the Luciferase Assay System (Promega) in a Berthold luminometer. […] Viable cells continuously convert resazurin to resorufin, increasing the overall fluorescence and color of the media surrounding cells.
(§2) Fig 2 Anti-HCV activities of STG-175 among GTs. […] Luciferase activity was determined using the Luciferase Assay System in a Berthold luminometer. […] Data are expressed as mean of relative light units and calculated EC50s are presented. […]

Assay [2] has as its system NS5Ai-resistant L31V NS5A Con1 GT1b replicon. The experiment in a line: Electroporated Con1 RNA replication in Huh7.5.1 cells (RT-qPCR), L31V NS5A. To be noted: Hepatitis C virus, Huh-7.5.1, 192 h, read-out: EC50 L31V NS5A. An excerpt: The GT1b subgenomic firefly luciferase reporter replicon pFK-I389/NS3–3 was provided by R. Bartenschlager. The GT1B subgenomic NS3, NS5A and NS5B mutants were created via homologous recombination using the In-Fusion HD Cloning kit (Clontech) as we described previously. […] The in vitro transcription of wild-type and mutant Con1 RNA was accomplished using the T7 MEGAscript kit (Ambion) by following the manufacturer’s instructions. In vitro-transcribed RNAs were introduced into Huh7.5.1 cells by electroporation. Trypsinized cells were washed twice and resuspended in phosphate-buffered saline (PBS) (calcium-free and magnesium-free) at 1x 10^7 cells per ml. Ten micrograms of RNA for each mutant was mixed with 0.4 mL of cells in a 4-mm cuvette, and a Bio-Rad Gene Pulser system was used to deliver a single pulse at 0.27 kV, 100 ohms, and 960 μF. […] RNA transfection efficiency and HCV subgenomic replication were assessed by reverse transcription-quantitative PCR (RT-qPCR) and presented as genome equivalents (GE) per microgram of total RNA as described previously. We measured by RT-qPCR the replication of wild-type, STG-175-, NS5Ai-, NS3i- and NS5Bi-resistant mutants in the presence of increasing concentrations of SGT-175, daclatasvir, telaprevir, boceprevir and sofosbuvir over a period of 8 days.
Fig 5 Cross-resistance analyses. […] Data are expressed as log of GE/μg of total RNA. […]
Background: In qPCR the cycle at which signal appears reflects the starting amount.

Assay [3] relates to HCV GT2a genomic replicon Luc-Neo-JFH-1. As to the kind of experiment: Luciferase reporter replicon antiviral assay, GT2a. Conditions: Hepatitis C virus. The procedure: as §1, §2
(In general: In a reporter assay the amount or activity of a reporter protein is the signal.)

Molecules are shown by their SMILES. Like-named read-outs stand apart in the source and are kept apart here.

The EC50 is the concentration at which the effect is half-maximal. For `CC=CCC(C)C(O)C1C(=O)NC(CC)C(=O)N(C)C(CSCCCCO)C(=O)N(C)C(CC(C)(C)O)C(=O)NC(C(C)C)C(=O)N(C)C(CC(C)C)C(=O)NC(C)C(=O)NC(C)C(=O)N(C)C(CC(C)C)C(=O)N(C)C(CC(C)C)C(=O)N(C)C(C(C)C)C(=O)N1C` (centres unmarked) [STG-175], the EC50 in assay [1] (72 h, read-out: EC50 GT3a) turned out to be 38.9 nM; in assay [1] (read-out: EC50 GT3a (Fig 2D)), 38.9 nM; in assay [2] it was 15.1 nM; in assay [3] (72 h post-drug addition, luciferase, read-out: EC50 GT2a), 11.5 nM; in assay [3] (Fig 2D table, unit inferred, read-out: EC50 GT2a (Fig 2D)), 11.5 nM.
